Assay results: patent publication US9469652B2, “ERK inhibitors” (Eli Lilly and Company, priority 2014, dated 2016)

How the values were obtained:
[1] = system: human non-small cell lung cancer cells NCI-H2122 (KRAS_G12C); assay: In vivo combination study, NCI-H2122 NSCLC xenograft model; set-up: species or system female athymic nude mice; conditions: single agent
Protocol: (§1) More specifically, the compound of Example 1 is tested in combination with either the pan-RAF inhibitor compound or the CDK4/6 inhibitor compound in HCT116, a KRAS mutant colorectal cancer xenograft model. Also, the compound of Example 1 is tested in combination with either the CDK4/6 inhibitor compound or DC101 in NCI-H441, A549, and NCI-H2122, KRAS mutant non-small cell lung cancer (NSCLC) xenograft models.
(§2) Combination efficacy is also tested in three KRAS mutant NSCLC xenograft models including A549 (KRAS_G12S) in SCID mice as well as NCI-H441 (KRAS_G12V) and NCI-H2122 (KRAS_G12C) in athymic nude mice. Expand human non-small cell lung cancer cells NCI-H441 (ATCC, #CRL-5807) and NCI-H2122 (ATCC, #CRL-5985) in culture, harvest and inject 5×10e^6 cells in 200 μL of 1:1 HBSS+matrigel solution subcutaneously on to the rear right flank of female athymic nude mice (20-22 gm, Harlan Laboratories). Expand human non-small cell lung cancer cells A549 (ATCC, #CC1-185) in culture, harvest and inject 5×10e^6 cells in 200 μL of 1:1 HBSS+matrigel solution subcutaneously on to the rear right flank of female CB-17 SCID mice (18-20 gm, Taconic Farms). For all cell lines, measure tumor growth and body weight twice per week beginning the seventh day after the implantation. When average tumor sizes reach 200-300 mm^3, randomize animals and group into groups of five to seven animals. Prepare test compound in an appropriate vehicle (see below) and administer by oral gavage (compound of Example 1 and the CDK4/6 inhibitor compound) or intraperitoneally (DC101) for 21 to 28 days. Tumor response is determined by tumor volume measurement performed twice a week during the course of treatment. Vehicle used in these studies is 1% HEC/0.25% Tween® 80/0.05% Antifoam. The compound of Example 1 is formulated in 1% HEC/0.25% Tween® 80/0.05% Antifoam and the CDK4/6 inhibitor compound is formulated in 1% HEC in 25 mM sodium phosphate buffer, pH 2. […] In the same NCI-H441 xenograft model, DC101 in phosphate buffer is also administered intraperitoneally twice per week (BIW) as a single agent or in combination with the compound of Example 1, 50 mpk, QD for 28 days.

[2] = system: human non-small cell lung cancer cells NCI-H441 (KRAS_G12V); assay: In vivo combination study, NCI-H441 NSCLC xenograft model; conditions: single agent
Protocol: as §1, §2

[3] = system: human colorectal cancer cells HCT116; assay: In vivo combination study, HCT116 KRAS mutant colorectal cancer xenograft model; conditions: oral, 28 days, single agent
Protocol: as §1
The HCT116 combination efficacy study is done in athymic nude rats. Expand human colorectal cancer cells HCT116 (ATCC, #CCL-247) in culture, harvest and inject 5×10e^6 cells in 200 μL of 1:1 HBSS+matrigel solution subcutaneously on to the rear right flank of female NIH nude rats (120-145 gm, Taconic Farms). Measure tumor growth and body weight twice per week beginning the seventh day after the implantation. When average tumor sizes reach 200-300 mm^3, randomize animals and group into groups of five to seven animals. Prepare test compound in an appropriate vehicle (see below) and administer by oral gavage for 21 to 28 days. Tumor response is determined by tumor volume measurement performed twice a week during the course of treatment. Vehicle used in this study is 1% HEC (hydroxy ethyl cellulose)/0.25% Tween® 80/0.05% Antifoam. The compound of Example 1 and the pan-RAF inhibitor compound are formulated in 1% HEC/0.25% Tween® 80/0.05% Antifoam. The CDK4/6 inhibitor compound is formulated in 1% HEC in 25 mM Sodium phosphate buffer, pH 2.

[4] = system: human non-small cell lung cancer cells A549 (KRAS_G12S); assay: In vivo combination study, A549 NSCLC xenograft model; set-up: species or system female CB-17 SCID mice; conditions: single agent
Protocol: as §1, §2

Compound	Delta T/C % ([1]; 50 mg/kg QD, oral, 28 days) [%]	tumor growth inhibition ([1]; 50 mpk) [%]	Delta T/C % ([2]; 50 mg/kg QD, oral, 28 days) [%]	tumor growth inhibition ([2]; 50 mpk) [%]	Delta T/C % ([3]; 20 mg/kg QD) [%]	TGI % ([3]; 20 mg/kg QD) [%]	Delta T/C % ([4]; 50 mg/kg QD, oral, 28 days) [%]	tumor growth inhibition ([4]; 50 mpk) [%]	Delta T/C % ([3]; 10 mg/kg BID) [%]	TGI % ([3]; 10 mg/kg BID) [%]	Delta T/C % ([3]; 20 mg/kg BID) [%]	TGI % ([3]; 20 mg/kg BID) [%]
CCN1CCN(Cc2ccc(Nc3ncc(F)c(-c4cc(F)c5nc(C)n(C(C)C)c5c4)n3)nc2)CC1 [CDK4/6 inhibitor, [5-(4-ethyl-piperazin-1-ylmethyl)-pyridin-2-yl]-[5-fluoro-4-(7-fluoro-3-isopropyl-2-methyl-3H-benzoimidazol-5-yl)-pyrimidin-2-yl]-amine, reference compound]	47	53	19	81	24	76	49	51				
CNc1ncc2cc(-c3cc(NC(=O)NCCC(C)(C)C)c(F)cc3C)c(C)nc2n1 [pan-RAF inhibitor, 1-(3,3-dimethylbutyl)-3-(2-fluoro-4-methyl-5-(7-methyl-2-(methylamino)pyrido[2,3-d]pyrimidin-6-yl)phenyl)urea]									71	29	32	68
